Results: ChEMBL document CHEMBL3507680, “University of Dundee, Gates Library screen for HepG2 cell viability”

Test: Human HepG2 cell viability assay in 384 well format
Format: toxicity, cell-based
Design: dose 125 nL, time 70.5 hour; cytotoxicity at 70.5 h: concentration not given beside the values
Details: HepG2 cells, read-out: Inhibition

| Structure (SMILES) | cytotoxicity at 70.5 h |
| --- | --- |
| CC1(C)OC(=O)N(CC(=O)N2CCC(c3ccccc3F)C2)C1=O (configuration not stated) | -3.83% |
| CC(C)Nc1cccc(C(=O)NCC(O)c2cccc(F)c2)c1 (configuration not stated) | -6.04% |
| NCC(=O)N1CCCC(c2ccnc(Nc3cnccn3)n2)C1 (configuration not stated) | -7.18% |
| Cc1ccsc1CN(C)c1nc2c(cnn2C(C)(C)C)c(=O)[nH]1 | -4.96% |
| COc1ncccc1CNC(=O)NCc1ccco1 | -1.48% |
| CCc1nc(CN2CCCN(CC(O)c3ccccc3)CC2)no1 (configuration not stated) | -8.08% |
| Cc1cc(C)n(CCC(=O)N2CCCC(c3nc(C(C)C)no3)C2)n1 (configuration not stated) | -4.86% |
| COC(C)(C)C(=O)N1Cc2cnc(C(C)(C)C)nc2C1 | -13.3% |
| c1coc(CN2CCO[C@@]3(CCC[C@@H]3COCc3nccs3)C2)c1 | -13.3% |
| Nc1nc2c(c(N3CCOCC3)n1)CCN(C(=O)c1ccc[nH]1)CC2 | -7.85% |
| Cc1nc(CN2CCC3(CCN(c4cnn(C)c4)C3=O)C2)cs1 (configuration not stated) | -14.5% |
| Cc1cc2nccc(C3CCCN(C(=O)c4cnccn4)C3)n2n1 (configuration not stated) | 0.174% |
| CN(C)c1cncc(C2CCN(C(=O)CO)CC2)n1 | -22.6% |
| Cn1cc(CN2C[C@@H](NC(=O)c3cscn3)[C@H]3OCCC[C@H]32)cn1 | -8.57% |
| COc1cc(C(C)=O)ccc1SCC(=O)Nc1cc(C)n[nH]1 | -11.8% |
| c1cnn(CCNCc2csc(-c3ccsc3)n2)c1 | 10.6% |
| CCCNC(=O)N1CCCC2(CCC(=O)N(CCc3c[nH]cn3)C2)C1 (configuration not stated) | -1.2% |
| CC(C)c1nc(CN2CCOCC2)cs1 | 7.98% |
| CNc1cc(C2CCCNC2)nc(C)n1 (configuration not stated) | 16.2% |

| Structure (SMILES) | cytotoxicity at 70.5 h |
| --- | --- |
| COc1ccc(CN2CCOC[C@H](OCc3ccccc3)C2)cc1 | -8.76% |
| CN(C(=O)c1cn(C)cn1)[C@@H]1CCC[C@@H](Oc2ccccc2)[C@@H]1O | -2.57% |
| O=C(C1CCCO1)N1CCCn2c(nnc2Cn2cccn2)C1 (configuration not stated) | -10.9% |
| CN(C)CCCNC(=O)c1ccccc1NC(=O)c1cc(Cl)ccc1Cl | -13.9% |
| COCC(=O)NCc1cccc(OCCN(C)C2CCOCC2)c1 | -0.957% |
| CCC(C)N1CCc2c(C(=O)N3CCOCC3)n[nH]c2C1 (configuration not stated) | -3.05% |
| Cc1cc2c(cc1NC(=O)NC(C)(C)C)OCO2 | -7.87% |
| CSCC(=O)N1CCCN(c2ccccc2C)CC1 | -4.65% |
| CCS(=O)(=O)NCC1CCN(c2cnccn2)CC1 | -6.43% |
| Cc1ccc(N2CC3(COCCN(Cc4ccccn4)C3)OCC2=O)s1 (configuration not stated) | -1.36% |
| Cc1n[nH]c(C)c1CCNC(=O)Nc1ccc(S(C)(=O)=O)cc1 | -20% |
| O=C(N1CCOCC1)N1CCC2(CCNC2)C1 (configuration not stated) | -3.15% |
| Cc1cc(-n2cncn2)ccc1C(=O)N(C)CC(F)(F)C(F)(F)F | -5.19% |
| O=C(c1cccn1Cc1cccs1)N1CCN(C2CC2)CC1 | -10.4% |
| CCOc1ncccc1C(=O)N1CCCC(c2nncn2C)C1 (configuration not stated) | -3.42% |
| CC(Cn1ccnc1)NC(=O)NCCc1ccc(Cl)s1 (configuration not stated) | -4.32% |
| CCN(Cc1cccc(Cl)c1)Cc1nc2c(cnn2C)c(=O)[nH]1 | -7.7% |
| CCn1cc(NC(=O)NCC(C)(C)N2CCc3ccccc3C2)cn1 | 13.8% |
| CCN(Cc1ccccc1)C1CCN(c2cc(C)nn2C)C1=O (configuration not stated) | -8.27% |

| Structure (SMILES) | cytotoxicity at 70.5 h |
| --- | --- |
| CC(C)NCc1cccnc1N1CCN(c2ccccn2)CC1 | -11.6% |
| O=C(O)c1ccc(CC2CCN(S(=O)(=O)N3CCOCC3)C2)cc1 (configuration not stated) | -5.44% |
| CCCc1cc(NC(=O)c2cccc(N3CCCNC3=O)c2)n[nH]1 | -6.61% |
| COCCN1CCN(Cc2ccoc2)Cc2cccnc21 | 6.66% |
| CN(C)[C@@H]1CN(Cc2ccco2)C[C@@H]2CCCO[C@@H]21 | -8.79% |
| O=C(C1CCCC1)N1CC2(CCN(C3COC3)C2)OCc2ccccc21 (configuration not stated) | -17.3% |
| CCOc1cc(C(=O)O)cc(-c2ccccc2)c1OC | -1.01% |
| CCN1CCOCC2(CCCN(C(=O)c3conc3C)C2)C1 (configuration not stated) | -1.18% |
| CCC1(c2ccc(NS(=O)(=O)c3ccc(Cl)s3)cc2)CCC(=O)NC1=O (configuration not stated) | -11.2% |
| CCOC[C@H]1CC[C@H]2[C@H](CCN2C(=O)c2cnccn2)O1 | -4.15% |
| CC(=O)N(Cc1ncc(C)o1)C1CCN(Cc2ccon2)C1 (configuration not stated) | 22.2% |
| Cc1ncccc1Oc1cncc(C2CCCN2Cc2cncn2C)n1 (configuration not stated) | -2.83% |
| CC(C)(C)NC(=O)C1CSCN1S(=O)(=O)c1ccccc1F (configuration not stated) | -4.62% |
| Cc1nocc1C(=O)N1CCCC2(CCN(c3cnn(C)c3)C2=O)C1 (configuration not stated) | -3.71% |
| CC1CCN(C(=O)C2CC(=O)N(c3cnn(C(C)C)c3)C2)CC1 (configuration not stated) | -13.2% |
| Cc1noc(CN(Cc2cccs2)C2CC2)n1 | 17.3% |
| Cc1nc(CN2CCN(C(=O)CCc3nc(C(C)(C)C)no3)CC2)cs1 | 5.21% |
| O=C(CCNc1ncccn1)N1CCCN(c2nccs2)CC1 | 15.2% |
| O=C1CC[C@H]2CN(c3ncc(F)cn3)CC[C@H]2N1CCc1c[nH]cn1 | -8.52% |
